Measured values reported in ChEMBL document CHEMBL4673295 (Bioorg Med Chem, 2021).

What was measured:
[1] = Binding affinity to Escherichia coli BL21 (DE3) HPPK in presence of ATP and MgCl2 by fluorimetry
[2] = Binding affinity to Escherichia coli BL21 (DE3) HPPK incubated for 10 mins by fluorimetry
[3] = Binding affinity to Escherichia coli HPPK by isothermal titration calorimetry
[4] = Inhibition of Escherichia coli HPPK incubated for 30 mins by thin layer chromatography

Q: For `Nc1nc2c(c(=O)[nH]1)N=C(CO)CN2`, which Kd [1] is on record?
A: 170 nM

Q: For `Nc1ncnc2c1ncn2[C@@H]1O[C@H](COP(=O)(O)OP(=O)(O)OP(=O)(O)O)[C@@H](O)[C@H]1O` [ADENOSINE TRIPHOSPHATE], which Kd [2] is on record?
A: 2600 nM

Q: What does the source list for `CC1(C)Nc2nc(N)[nH]c(=O)c2N=C1C(=O)NCCN1CC[C@@H](SC[C@H]2O[C@@H](n3cnc4c(N)ncnc43)[C@H](O)[C@@H]2O)C[C@@H]1C(=O)O`?
A: Kd [3]: 190 nM; IC50 [4]: 380 nM

Q: Which Kd [3] does the source give for `CC1(C)Nc2nc(N)[nH]c(=O)c2N=C1C(=O)NCCN1CC[C@@H](S(=O)(=O)C[C@H]2O[C@@H](n3cnc4c(N)ncnc43)[C@H](O)[C@@H]2O)C[C@@H]1C(=O)O` here?
A: 47 nM
